From US9796753B2, “N-substituted indenoisoquinolines and syntheses thereof” (Purdue Research Foundation, priority 2005, dated 2017)
Where two headings read alike, the source gives them in different places.

Tests used:
Assay type in all cases: cell-based
[1] = tested on: breast MDA-MB-435; test: COMPARE screening (NCI human cancer cell line screen), cytotoxicity GI50
Experimental: COMPARE screening. The compounds described herein were examined for antiproliferative activity against the human cancer cell lines in the National Cancer Institute screen (COMPARE screening), in which the activity of each compound was evaluated with approximately 55 different cancer cell lines of diverse tumor origins. […] Therefore, the MGM value represents an overall assessment of toxicity of the compound across numerous cell lines.

[2] = tested on: all human cancer cell lines successfully tested; test: NCI screen mean graph midpoint (MGM) for growth inhibition
Outline: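 NCI60 panel cells exposed to compound at 100, 10, 1, 0.1 and 0.01 μM for 48 h, then sulforhodamine B staining. Percentage growth versus control plotted against log concentration; MGM is the midpoint across all lines tested.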

[3] = tested on: CNS SF-539; test: COMPARE screening (NCI human cancer cell line screen), cytotoxicity GI50
Outline: (§1)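 Cells of the NCI60 panel were exposed to compound at 100, 10, 1, 0.1 and 0.01 μM for 48 h, then stained with sulforhodamine B. Optical density relative to control was plotted as percentage growth versus log10 concentration.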

[4] = tested on: melanoma UACC-62; test: as above
Outline: as §1

[5] = tested on: lung HOP-62; test: as above
Outline: as §1

[6] = tested on: prostate DU-145; test: as above
Outline: as §1

[7] = tested on: colon HCT-116; test: as above
Outline: as §1

[8] = tested on: ovarian OVCAR-3; test: as above
Outline: as §1

[9] = tested on: renal SN12C; test: as above
Outline: as §1

[10] = Table 1, average GI50 of all cell lines tested (approximately 55), test range 10^−8 to 10^−4 molar
[11] = all human cancer cell lines successfully tested

| SMILES | GI50 [1] | GI50 [3] | GI50 [4] | GI50 [5] | GI50 [6] | GI50 [7] | GI50 [8] | GI50 [9] | MGM (mean GI50 across cell lines) [2, 10] | also measured |
| --- | --- | --- | --- | --- | --- | --- | --- | --- | --- | --- |
| CC(C)(C)OC(=O)NCCCCCCCCCCCn1c2c(c3ccccc3c1=O)C(=O)c1ccccc1-2 [Compound 5aj, 6-(11′-tert-BOC-Anminoundecyl)-5,6-dihydro-5,11-dioxo-11H-indeno[1,2-c]isoquinoline] | > 100 µM | 29.5 µM | 24 µM | 20.9 µM | 91.2 µM | 35.5 µM | 70.8 µM | > 100 µM | – | MGM (mean graph midpoint for growth inhibition) [2, 10]: 42.6 ± 5.35 µM |
| COc1ccc2c(c1)C(=O)c1c-2n(CCCN=[N+]=[N-])c(=O)c2ccccc12 [Compound 5bf] | 64.6 µM | 44.7 µM | 75.9 µM | 33.9 µM | 61.7 µM | 26.9 µM | 52.5 µM | > 100 µM | 38.9 µM | – |
| O=C1c2ccccc2-c2c1c1ccccc1c(=O)n2CCNCCn1c2c(c3ccccc3c1=O)C(=O)c1ccccc1-2 [Compound 12a, Bis{(5,6-dihydro-5,11-diketo-11H-indeno[1,2-c]isoquinoline)-6-ethyl}amine] | > 25.1 µM | > 25.1 µM | > 25.1 µM | > 25.1 µM | > 25.1 µM | > 25.1 µM | > 25.1 µM | > 25.1 µM | – | MGM (mean GI50 across cell lines) [2, 11]: 18.2 µM |
| NCCCn1c2c(c3ccccc3c1=O)C(=O)c1ccccc1-2 [Compound S-3, 5,6-dihyro-6-(3-amino-1-propyl)-5,11-dioxo-11H-indeno[1,2,c]isoquinoline, reference compound] | 0.78 µM | 0.25 µM | 0.26 µM | 0.2 µM | 0.22 µM | 0.18 µM | 1.38 µM | 0.16 µM | – | MGM (mean graph midpoint for growth inhibition) [2, 11]: 0.32 ± 0.23 µM |
| O=C1c2ccccc2-c2oc(=O)c3cc([N+](=O)[O-])ccc3c21 [Compound 4c, 3-nitrobenz[d]indeno[1,2-b]pyran-5,11-dione] | – | – | – | – | – | – | – | – | 64.6 µM | GI50 ([1]; Homo sapiens, MDA-MB-435, read-out: cytotoxicity (GI50) breast MDA-MB-435): > 100 µM; GI50 ([3]; Homo sapiens, CNSSF-539, read-out: cytotoxicity (GI50) CNS SF-539): > 100 µM; GI50 ([4]; Homo sapiens, UACC-62, read-out: cytotoxicity (GI50) melanoma UACC-62): 25.1 µM; GI50 ([5]; Homo sapiens, HOP-62, read-out: cytotoxicity (GI50) lung HOP-62): 18.2 µM; GI50 ([6]; Homo sapiens, DU-145, read-out: cytotoxicity (GI50) prostate DU-145): > 100 µM; GI50 ([7]; Homo sapiens, HCT-116, read-out: cytotoxicity (GI50) colon HCT-116): 47.9 µM; GI50 ([8]; Homo sapiens, OVCAR-3, read-out: cytotoxicity (GI50) ovarian OVCAR-3): > 100 µM; GI50 ([9]; Homo sapiens, SN12C, read-out: cytotoxicity (GI50) renal SN12C): > 100 µM |
| COc1cc2c3c(n(CCCn4ccnc4)c(=O)c2cc1OC)-c1ccccc1C3=O [Compound 5e] | 0.014 µM | < 0.01 µM | < 0.01 µM | < 0.01 µM | < 0.01 µM | 0.01 µM | < 0.01 µM | < 0.01 µM | 0.033 µM | – |
| CC(C)(C)OC(=O)N(CCCCN(CCCn1c2c(c3ccccc3c1=O)C(=O)c1ccccc1-2)C(=O)OC(C)(C)C)CCCn1c2c(c3ccccc3c1=O)C(=O)c1ccccc1-2 [Compound 13d, Bis-1,4-{(5,6-dihydro-5,11-diketo-11H-indeno[1,2-c]isoquinoline)-(6-propyl-tert-BOCamino)}butane] | – | – | – | – | – | – | – | – | – | GI50 ([1]; breast MDA-MB-435, concentration corresponding to 50% growth inhibition, read-out: cytotoxicity (GI50 in μM) breast MDA-MB-435): 69.2 µM; MGM (mean GI50 across cell lines) [2, 11]: 35.5 µM; GI50 ([3]; CNS SF-539, concentration corresponding to 50% growth inhibition, read-out: cytotoxicity (GI50 in μM) CNS SF-539): 8.13 µM; GI50 ([4]; melanoma UACC-62, concentration corresponding to 50% growth inhibition, read-out: cytotoxicity (GI50 in μM) melanoma UACC-62): 93.3 µM; GI50 ([5]; lung HOP-62, concentration corresponding to 50% growth inhibition, read-out: cytotoxicity (GI50 in μM) lung HOP-62): 11 µM; GI50 ([6]; prostate DU-145, concentration corresponding to 50% growth inhibition, read-out: cytotoxicity (GI50 in μM) prostate DU-145): 47.9 µM; GI50 ([7]; colon HCT-116, concentration corresponding to 50% growth inhibition, read-out: cytotoxicity (GI50 in μM) colon HCT-116): 1.91 µM; GI50 ([8]; ovarian OVCAR-3, concentration corresponding to 50% growth inhibition, read-out: cytotoxicity (GI50 in μM) ovarian OVCAR-3): 69.2 µM; GI50 ([9]; renal SN12C, concentration corresponding to 50% growth inhibition, read-out: cytotoxicity (GI50 in μM) renal SN12C): 36.3 µM |
| Cl.NCCn1c2c(c3ccccc3c1=O)C(=O)c1ccccc1-2 [Compound 5al] | 0.92 µM | 0.21 µM | 0.92 µM | 0.62 µM | 0.76 µM | 0.27 µM | 0.71 µM | 0.49 µM | – | MGM (mean graph midpoint for growth inhibition) [2, 10]: 0.530 ± 0.320 µM |
